Values quoted from earlier work, collected in patent US20060052354A1, “Methods for treating migraine” (Corcept Therapeutics, Inc., priority 2002, published 2006).

What was measured:
[1] = in one study (Kawai)
[2] = target: T1, glucocorticoid (GR) receptors (Homo sapiens, UniProt P04150)
T1 sequence (P04150 1-777): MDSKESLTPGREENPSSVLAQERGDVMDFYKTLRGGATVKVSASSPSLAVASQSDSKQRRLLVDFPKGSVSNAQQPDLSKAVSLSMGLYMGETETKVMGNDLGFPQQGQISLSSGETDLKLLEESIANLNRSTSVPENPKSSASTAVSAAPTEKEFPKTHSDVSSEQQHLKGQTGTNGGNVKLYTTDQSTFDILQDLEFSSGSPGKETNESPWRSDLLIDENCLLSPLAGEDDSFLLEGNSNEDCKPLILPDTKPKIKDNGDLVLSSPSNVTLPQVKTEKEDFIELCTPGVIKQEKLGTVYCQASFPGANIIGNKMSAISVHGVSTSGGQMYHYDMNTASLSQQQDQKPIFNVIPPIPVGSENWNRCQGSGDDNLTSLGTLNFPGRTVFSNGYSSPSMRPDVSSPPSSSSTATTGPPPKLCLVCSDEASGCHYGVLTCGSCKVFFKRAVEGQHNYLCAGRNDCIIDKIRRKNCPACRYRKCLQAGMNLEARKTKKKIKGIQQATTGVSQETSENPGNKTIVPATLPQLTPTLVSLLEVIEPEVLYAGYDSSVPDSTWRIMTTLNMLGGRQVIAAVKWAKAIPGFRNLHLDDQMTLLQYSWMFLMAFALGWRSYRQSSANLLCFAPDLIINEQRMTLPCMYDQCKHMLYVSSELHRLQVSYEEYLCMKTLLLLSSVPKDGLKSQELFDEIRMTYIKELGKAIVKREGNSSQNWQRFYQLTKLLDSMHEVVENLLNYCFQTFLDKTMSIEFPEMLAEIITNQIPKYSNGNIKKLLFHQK

progesterone receptor = target: T2, progesterone receptor (Homo sapiens, UniProt P06401)
T2 sequence (P06401 1-933): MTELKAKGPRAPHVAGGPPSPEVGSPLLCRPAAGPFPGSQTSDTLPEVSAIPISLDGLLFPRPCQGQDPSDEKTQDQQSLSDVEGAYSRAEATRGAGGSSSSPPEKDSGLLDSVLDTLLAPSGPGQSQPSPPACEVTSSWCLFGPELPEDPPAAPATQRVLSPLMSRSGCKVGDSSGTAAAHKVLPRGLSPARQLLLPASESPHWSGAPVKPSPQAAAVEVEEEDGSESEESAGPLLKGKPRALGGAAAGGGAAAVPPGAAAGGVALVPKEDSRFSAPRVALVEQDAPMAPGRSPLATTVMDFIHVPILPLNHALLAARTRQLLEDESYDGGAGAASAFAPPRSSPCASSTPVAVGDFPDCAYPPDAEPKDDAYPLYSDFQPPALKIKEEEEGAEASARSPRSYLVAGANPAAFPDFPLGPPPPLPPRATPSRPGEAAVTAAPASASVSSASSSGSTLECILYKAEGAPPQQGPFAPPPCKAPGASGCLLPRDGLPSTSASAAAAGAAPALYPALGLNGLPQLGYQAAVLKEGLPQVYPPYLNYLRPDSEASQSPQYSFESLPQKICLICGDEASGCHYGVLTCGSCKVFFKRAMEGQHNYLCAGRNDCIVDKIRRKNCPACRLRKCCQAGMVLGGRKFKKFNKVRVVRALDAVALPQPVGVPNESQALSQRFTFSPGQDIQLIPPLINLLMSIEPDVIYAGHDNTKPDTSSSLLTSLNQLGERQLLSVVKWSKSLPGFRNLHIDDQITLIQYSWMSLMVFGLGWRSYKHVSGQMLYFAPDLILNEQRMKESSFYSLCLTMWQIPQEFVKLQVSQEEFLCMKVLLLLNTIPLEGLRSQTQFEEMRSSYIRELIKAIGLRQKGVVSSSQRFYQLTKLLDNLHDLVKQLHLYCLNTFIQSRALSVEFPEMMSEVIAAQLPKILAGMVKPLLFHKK

[3] = target: T3, Mineralocorticoid receptors (MRs) (Homo sapiens, UniProt P08235); conditions: MR versus GR
T3 sequence (P08235 1-984): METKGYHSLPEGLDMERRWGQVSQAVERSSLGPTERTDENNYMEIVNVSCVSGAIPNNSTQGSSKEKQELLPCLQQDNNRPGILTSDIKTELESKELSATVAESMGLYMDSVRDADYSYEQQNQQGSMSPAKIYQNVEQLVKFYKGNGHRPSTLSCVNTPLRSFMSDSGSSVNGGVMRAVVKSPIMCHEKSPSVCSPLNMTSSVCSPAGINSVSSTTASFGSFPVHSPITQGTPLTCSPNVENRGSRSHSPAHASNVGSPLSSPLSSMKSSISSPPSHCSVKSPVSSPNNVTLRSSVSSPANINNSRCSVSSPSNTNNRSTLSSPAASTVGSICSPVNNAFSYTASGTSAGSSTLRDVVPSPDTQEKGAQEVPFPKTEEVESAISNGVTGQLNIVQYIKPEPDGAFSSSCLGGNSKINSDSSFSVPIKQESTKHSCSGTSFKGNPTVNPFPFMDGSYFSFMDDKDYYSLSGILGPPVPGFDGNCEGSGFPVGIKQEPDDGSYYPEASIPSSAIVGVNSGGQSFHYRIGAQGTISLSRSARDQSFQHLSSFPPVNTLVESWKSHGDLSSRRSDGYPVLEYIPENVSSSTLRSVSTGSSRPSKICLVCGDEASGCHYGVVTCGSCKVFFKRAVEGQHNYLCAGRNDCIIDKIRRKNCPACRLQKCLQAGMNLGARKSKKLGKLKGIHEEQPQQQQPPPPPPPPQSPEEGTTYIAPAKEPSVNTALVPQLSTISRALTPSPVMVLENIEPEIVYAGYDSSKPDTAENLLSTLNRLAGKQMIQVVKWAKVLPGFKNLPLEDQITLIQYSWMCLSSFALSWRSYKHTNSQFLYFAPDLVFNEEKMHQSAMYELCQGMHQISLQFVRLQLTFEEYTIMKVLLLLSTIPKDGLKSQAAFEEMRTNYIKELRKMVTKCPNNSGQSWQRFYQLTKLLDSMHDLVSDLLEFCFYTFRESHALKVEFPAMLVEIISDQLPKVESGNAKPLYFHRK

Compound	daily dose excreted in the urine [1]	antagonist of the glucocorticoid (GR) receptor [2]	antagonist of the progesterone receptor (progesterone receptor)	affinity of MRs for cortisol relative to GRs for glucocorticoids [3]
CC#C[C@]1(O)CC[C@H]2[C@@H]3CCC4=CC(=O)CCC4=C3[C@@H](c3ccc(N(C)C)cc3)C[C@@]21C [Mifepristone, (11β,17β) 11 [4 (dimethylamino)phenyl]-17 hydroxy-17 (1 propynyl)estra-4,9 dien-3 one]	less than 0.5%	powerful antagonist	powerful antagonist	
C[C@]12CCC(=O)C=C1CC[C@@H]1[C@@H]2[C@@H](O)C[C@@]2(C)[C@H]1CC[C@]2(O)C(=O)CO [cortisol]				ten-fold
CC#C[C@]1(O)CC[C@H]2[C@@H]3CCC4=CC(=O)CCC4=C3[C@@H](c3ccc(OCCN(C)C)cc3)C[C@@]21C [RU009, 11β-(4-dimethylaminoethoxyphenyl)-17α-propynyl-17β-hydroxy-4,9-estradien-3-one]		GR antagonist effects		
